# Laboratory results reported in PMC8069832, “New Amides and Phosphoramidates Containing Selenium: Studies on Their Cytotoxicity and Antioxidant Activities in Breast Cancer” (Antioxidants, 2021).
# Test system: MCF-7
# Assay: cells
# Conditions: Homo sapiens, MCF7, 48 h, read-out: Cell growth (%) MCF-7
row,SMILES,activity at 10 µM
1,Cc1ccc(C(=O)Nc2ccc([Se]C#N)cc2)cc1 [I.2g],70.4%
2,O=C(Nc1ccc([Se][Se]c2ccc(NC(=O)c3cccc4ccccc34)cc2)cc1)c1cccc2ccccc12 [I.1m],75.5%
3,Cc1ccc(OP(=O)(Nc2ccc([Se]C#N)cc2)Oc2ccc(C)cc2)cc1 [II.2g],75.6%

# Test system: CCRF-CEM
# Assay: cells
# Conditions: Homo sapiens, 48 h, read-out: Cell growth (%) CCRF-CEM
row,SMILES,activity at 10 µM
1,Cc1ccc(C(=O)Nc2ccc([Se]C#N)cc2)cc1 [I.2g],94.3%
2,O=C(Nc1ccc([Se][Se]c2ccc(NC(=O)c3cccc4ccccc34)cc2)cc1)c1cccc2ccccc12 [I.1m],74.4%
3,Cc1ccc(OP(=O)(Nc2ccc([Se]C#N)cc2)Oc2ccc(C)cc2)cc1 [II.2g],108%

# Test system: HT-29
# Assay: cells
# Conditions: Homo sapiens, HT-29, 48 h, read-out: Cell growth (%) HT-29
row,SMILES,activity at 10 µM
1,Cc1ccc(C(=O)Nc2ccc([Se]C#N)cc2)cc1 [I.2g],94.1%
2,O=C(Nc1ccc([Se][Se]c2ccc(NC(=O)c3cccc4ccccc34)cc2)cc1)c1cccc2ccccc12 [I.1m],78.8%
3,Cc1ccc(OP(=O)(Nc2ccc([Se]C#N)cc2)Oc2ccc(C)cc2)cc1 [II.2g],99.1%
